According to article PMC10958225, “Therapeutic potential of orally applied KB-R7943 in streptozotocin-induced neuropathy in rats” (Heliyon, 2024):

Experiments:
[1] = system: STZ-treated rats with neuropathy; assay: Coat state score; type: in vivo, rat; settings: chronic p.o. treatment from day 28, day 42
Protocol: (§1) On the day of diabetic state induction, rats were deprived of food for 6 h (from 8 a.m. to 2 p.m.). A single i.p. injection was applied with 55 mg/kg STZ in the ice-cold citrate buffer (0.1 M pH 4.4). The observed polydipsia, polyuria, reduced thriving with lower body weight, and poor coating appearance indirectly indicated the development of diabetes. On day 28, after 6 h of fasting, blood glucose was measured with an Xpress Statstrip Glucometer (Nova Biomedical Corporation, Waltham, MA, USA) from the tail vein. A cut-off value of blood glucose >13 mmol/l was adopted. […] Controls were once i.p. injected with ice-cold citrate buffer 0.1 M pH 4.4 only.
(§2) Three animals per cage were housed for the experiment 2 (Fig. 3B). […] Body weight (BW), coat score (CS), CPT, R–S, and FT were evaluated on day 28th post-STZ, and after that, rats were distributed into the treatment groups as follows. • C-Veh – Controls, vehiculum treatment (n = 12) • NP-Veh – STZ-treated rats with neuropathy, vehiculum treatment (n = 12) • NP-KB-R7943 – 5 mg - STZ-treated rats, with neuropathy, KB-R7943 5 mg/kg treatment (n = 12) • NP-KB-R7943 – 10 mg – STZ-treated rats, with neuropathy, KB-R7943 10 mg/kg (n = 12) • NP-AMT – 10 mg - STZ-treated rats, with neuropathy, amitriptyline 10 mg/kg (n = 12). […]
Coat state, water consumption, and body weight were evaluated weakly. […] Water consumption was measured per cage. […]

[2] = system: STZ-treated rats with neuropathy; assay: Forced swim test (FST); type: in vivo, rat; settings: 10 mg/kg p.o. once daily from day 28, test on day 41, 5-min test
Protocol: as §1
as §2, with “3B). Rats were gently manipulated daily before undertaking the actual behavior tests.” for “3B).”

[3] = system: NCX3; set-up: method as in PMID 9688596; settings: cited from earlier work
[4] = system: STZ-treated rats with neuropathy; assay: 24-hour spontaneous physical activity; type: in vivo, rat; settings: 5 mg/kg p.o. once daily from day 28, from day 41
Protocol: as §1
as §2, with “3B). Rats were gently manipulated daily before undertaking the actual behavior tests.” for “3B).”

[5] = system: STZ-treated rats with neuropathy; assay: Formalin test (0.5% formalin); type: in vivo, rat
Protocol: as §1
Three animals per cage were housed for the experiment 2 (Fig. 3B). Rats were gently manipulated daily before undertaking the actual behavior tests. One week after adaptation, the Randl-Stellito (R–S) test, cold plate test (CPT), and formalin tests (FT) were performed at baseline. After that, the diabetes model was made with 48 rats. Twelve animals served as controls. Body weight (BW), coat score (CS), CPT, R–S, and FT were evaluated on day 28th post-STZ, and after that, rats were distributed into the treatment groups as follows. • C-Veh – Controls, vehiculum treatment (n = 12) • NP-Veh – STZ-treated rats with neuropathy, vehiculum treatment (n = 12) • NP-KB-R7943 – 5 mg - STZ-treated rats, with neuropathy, KB-R7943 5 mg/kg treatment (n = 12) • NP-KB-R7943 – 10 mg – STZ-treated rats, with neuropathy, KB-R7943 10 mg/kg (n = 12) • NP-AMT – 10 mg - STZ-treated rats, with neuropathy, amitriptyline 10 mg/kg (n = 12).
OraPlus was used as a vehiculum for gavage (16 gauge feeding tube 10 ml/kg) in all rats. KB-R7943 in two doses (5 or 10 mg/kg) or amitriptyline 10 mg/kg was applied once daily until day 49. Behavior tests were performed […] after the oral gavage of the corresponding day, in the afternoon, starting from 2 p.m. […] On day 41, an FST was performed, and at 2 p.m., rats were placed individually for 24 h to assess spontaneous physical activity. After that, on day 42, the same battery of the tests as on day 28 were reassessed.
The formalin test was performed 1 h after the R–S test to decrease the interaction with the mechanical stimulus from the previous test. For the same reason, the left hind paws were injected. A needle (U-100 Insulin Syringe, Beckton and Dickinson, Dublin, Ireland) was used. A low-dose intraplantar injection of formalin 50 mcl 0.5% was done, and rats were placed in individual transparent cases for observation. Two independent observers measured the time spent licking or biting the injected paw, and the first (0–5 min) and the second post-injection phase (20–30 min) were reported in sec.

N=C(N)SCCc1ccc(OCc2ccc([N+](=O)[O-])cc2)cc1 [KB-R7943, [(2-{4-[(4-nitrophenyl)methoxy]phenyl}ethyl)sulfanyl]methanimidamide]
effect on coat score [1]: ameliorated | immobility time in FST [2]: 131.67 ± 29.80 s | potency as inhibitor of NCX3 relative to NCX1 and NCX2 [3]: three-fold more potent inhibitor of NCX3 than NCX1 and NCX2 | 24-h spontaneous physical activity [4]: 1705.92 ± 237.74 beam breaks | effect on formalin test first phase (0–5 min) ([5]; 5 mg/kg p.o. once daily, vs. 10 mg/kg groups): weaker effect | effect on formalin test first phase (0–5 min) ([5]; 10 mg/kg p.o. once daily, vs. NP-Veh): attenuated | effect on formalin test second phase (20–30 min) ([5]; amitriptyline 10 mg/kg, KB-R7943 5 and 10 mg/kg p.o. once daily, vs. NPveh, dose-dependent): attenuated
